Measured values from patent publication US8399681B2, “Substituted aminothiazolone indazoles as estrogen related receptor-alpha modulators” (Janssen Pharmaceutica NV, priority 2009, dated 2013).

Target: T1, ERR1 (also known as ERR-α or ERR-1) (Homo sapiens, UniProt P11474)
T1 sequence (P11474 193-421 limits assumed): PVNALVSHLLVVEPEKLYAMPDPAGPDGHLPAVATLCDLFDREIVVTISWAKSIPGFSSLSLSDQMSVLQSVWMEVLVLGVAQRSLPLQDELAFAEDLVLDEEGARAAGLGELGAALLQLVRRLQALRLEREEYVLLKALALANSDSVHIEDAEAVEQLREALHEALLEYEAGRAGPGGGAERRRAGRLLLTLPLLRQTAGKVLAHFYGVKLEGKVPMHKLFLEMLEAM
Assay: TR-FRET assay (disruption of co-activator peptide binding)
Format: biochemical
Conditions: 6His-tagged ERR1 LBD, GST-hSRC2 co-activator polypeptide; average of 3 independent experiments
How it was run: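 Compound-induced loss of co-activator recruitment, read by time-resolved FRET (excitation 340 nm; 615 and 665 nm emission) after 4-18 h at 25 °C. Reagents: 6 nM ERR1LBD, 6 nM GST-SRC-2, 30 nM Eu cryptate, 7.5 nM XL665, pH 8 Tris buffer. Values: hyperbolic fits averaged over 3 independent runs.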

Structure (SMILES)	EC50
O=C(O)CC1CCN(C2=NC(=O)/C(=C/c3ccc4c(cnn4Cc4ccc(Cl)cc4C(F)(F)F)c3)S2)C1 (stereo not shown) [Example 145, (1-{5-[1-(4-Chloro-2-trifluoromethyl-benzyl)-1H-indazol-5-ylmethylene]-4-oxo-4,5-dihydro-thiazol-2-yl}-pyrrolidin-3-yl)-acetic acid]	21 nM
CC(C)(C)OC(=O)N1CCN(C2=NC(=O)/C(=C/c3ccc4c(c3)c(I)nn4Cc3ccc(C(F)(F)F)cc3C(F)(F)F)S2)C[C@@H]1CO [Example 279, tert-Butyl (2R)-4-[5-({1-[2,4-bis(trifluoromethyl)benzyl]-3-iodo-1H-indazol-5-yl}methylidene)-4-oxo-4,5-dihydro-1,3-thiazol-2-yl]-2-(hydroxymethyl)piperazine-1-carboxylate]	11 nM
N[C@@H]1C[C@H](CO)N(C2=NC(=O)/C(=C/c3ccc4c(cnn4Cc4ccc(C(F)(F)F)cc4C(F)(F)F)c3)S2)C1 [Example 258, 2-[(2R,4R)-4-Amino-2-(hydroxymethyl)pyrrolidin-1-yl]-5-({1-[2,4-bis(trifluoromethyl)benzyl]-1H-indazol-5-yl}methylidene)-1,3-thiazol-4(5H)-one]	30 nM
CC(C)(C)NC(=O)[C@@H]1CN(C2=NC(=O)/C(=C/c3ccc4c(cnn4Cc4ccc(Cl)cc4C(F)(F)F)c3)S2)CCN1 [Example 228, (2S)—N-tert-Butyl-4-[5-({1-[4-chloro-2-(trifluoromethyl)benzyl]-1H-indazol-5-yl}methylidene)-4-oxo-4,5-dihydro-1,3-thiazol-2-yl]piperazine-2-carboxamide]	26 nM
NC1CN(C2=NC(=O)/C(=C/c3ccc4c(cnn4Cc4ccc(C(F)(F)F)cc4C(F)(F)F)c3)S2)C1 [Example 77, 2-(3-Amino-azetidin-1-yl)-5-[1-(2,4-bis-trifluoromethyl-benzyl)-1H-indazol-5-ylmethylene]-thiazol-4-one]	58.7 nM
CN1CCN(C2=NC(=O)/C(=C/c3ccc4c(cnn4Cc4ccc(C(F)(F)F)cc4Br)c3)S2)CC1 [Example 28, 5-[1-(2-Bromo-4-trifluoromethyl-benzyl)-1H-indazol-5-ylmethylene]-2-(4-methyl-piperazin-1-yl)-thiazol-4-one]	59 nM
O=C1N=C(N2CCC(n3cccn3)CC2)S/C1=C\c1ccc2c(cnn2Cc2ccc(Cl)cc2C(F)(F)F)c1 [Example 157, 5-[1-(4-Chloro-2-trifluoromethyl-benzyl)-1H-indazol-5-ylmethylene]-2-(4-pyrazol-1-yl-piperidin-1-yl)-thiazol-4-one]	35 nM
O=C1N=C(N2CCC(c3nnn[nH]3)CC2)S/C1=C\c1ccc2c(cnn2Cc2ccc(Cl)cc2C(F)(F)F)c1 [Example 110, 5-[1-(4-Chloro-2-trifluoromethyl-benzyl)-1H-indazol-5-ylmethylene]-2-[4-(1H-tetrazol-5-yl)-piperidin-1-yl]-thiazol-4-one]	18.6 nM
O=C1N=C(N2CCCC2)S/C1=C\c1ccc2c(cnn2Cc2ccc(Cl)cc2C(F)(F)F)c1 [Example 162, 5-[1-(4-Chloro-2-trifluoromethyl-benzyl)-1H-indazol-5-ylmethylene]-2-pyrrolidin-1-yl-thiazol-4-one]	27 nM
O=C1N=C(N2CCN(CCO)CC2)S/C1=C\c1ccc2c(cnn2Cc2ccc(Cl)cc2Cl)c1 [Compound 14, 5-[1-(2,4-Dichloro-benzyl)-1H-indazol-5-ylmethylene]-2-[4-(2-hydroxy-ethyl)-piperazin-1-yl]thiazol-4-one]	68 nM
O=C1N=C(N2CCC(O)(C(=O)O)CC2)S/C1=C\c1ccc2c(cnn2Cc2ccc(Cl)cc2C(F)(F)F)c1 [Example 268, 1-[5-({1-[4-Chloro-2-(trifluoromethyl)benzyl]-1H-indazol-5-yl}methylidene)-4-oxo-4,5-dihydro-1,3-thiazol-2-yl]-4-hydroxypiperidine-4-carboxylic acid]	15 nM
COC[C@H]1CN(C2=NC(=O)/C(=C/c3ccc4c(cnn4Cc4ccc(Cl)cc4C(F)(F)F)c3)S2)CCN1 [Example 208, 5-({1-[4-Chloro-2-(trifluoromethyl)benzyl]-1H-indazol-5-yl}methylidene)-2-[3-(R)-(methoxymethyl)piperazin-1-yl]-1,3-thiazol-4(5H)-one]	6 nM
O=C1N=C(N2CCO[C@H](CO)C2)S/C1=C\c1ccc2c(cnn2Cc2ncccc2C(F)(F)F)c1 [Example 281, 2-[(2S)-2-(Hydroxymethyl)morpholin-4-yl]-5-[(1-{[3-(trifluoromethyl)pyridin-2-yl]methyl}-1H-indazol-5-yl)methylidene]-1,3-thiazol-4(5H)-one]	590 nM
CC(C)(C)N1CCN(C2=NC(=O)/C(=C/c3ccc4c(cnn4Cc4ccc(Cl)cc4C(F)(F)F)c3)S2)CC1 [Example 84, 2-(4-tert-Butyl-piperazin-1-yl)-5-[1-(4-chloro-2-trifluoromethyl-benzyl)-1H-indazol-5-ylmethylene]-thiazol-4-one]	39 nM
COc1ccc(Cn2ncc3cc(/C=C4\SC(N5C[C@@H](O)[C@H](O)C5)=NC4=O)ccc32)c(C(F)(F)F)c1 [Example 32, 2-(3R,4R-Dihydroxy-pyrrolidin-1-yl)-5-[1-(4-methoxy-2-trifluoromethyl-benzyl)-1H-indazol-5-ylmethylene]-thiazol-4-one]	10 nM
CC(=O)N(C)C1CCN(C2=NC(=O)/C(=C/c3ccc4c(cnn4Cc4ccc(Cl)cc4C(F)(F)F)c3)S2)CC1 [Example 155, N-(1-{5-[1-(4-Chloro-2-trifluoromethyl-benzyl)-1H-indazol-5-ylmethylene]-4-oxo-4,5-dihydro-thiazol-2-yl}-piperidin-4-yl)-N-methyl-acetamide]	34 nM
O=C1N=C(N2CCCN(C(=O)OCC(F)(F)F)CC2)S/C1=C\c1ccc2c(cnn2Cc2ccc(Cl)cc2C(F)(F)F)c1 [Example 136, 4-{5-[1-(4-Chloro-2-trifluoromethyl-benzyl)-1H-indazol-5-ylmethylene]-4-oxo-4,5-dihydro-thiazol-2-yl}[1,4]diazepane-1-carboxylic acid 2,2,2-trifluoro-ethyl ester]	34 nM
CN1C[C@@H]2C[C@H]1CN2C1=NC(=O)/C(=C/c2ccc3c(cnn3Cc3ccc(C(F)(F)F)cc3C(F)(F)F)c2)S1 [Example 70, 5-[1-(2,4-Bis-trifluoromethyl-benzyl)-1H-indazol-5-ylmethylene]-2-(5-methyl-2S,5S-diaza-bicyclo[2.2.1]hept-2-yl)-thiazol-4-one]	11 nM
O=C1N=C(N2CCC(n3cncn3)CC2)S/C1=C\c1ccc2c(cnn2Cc2ccc(Cl)cc2C(F)(F)F)c1 [Example 158, 5-[1-(4-Chloro-2-trifluoromethyl-benzyl)-1H-indazol-5-ylmethylene]-2-(4-[1,2,4]triazol-1-yl-piperidin-1-yl)-thiazol-4-one]	32 nM
O=C1N=C(N2CCS(=O)(=O)CC2)S/C1=C\c1ccc2c(cnn2Cc2ccc(Cl)cc2C(F)(F)F)c1 [Example 146, 5-[1-(4-Chloro-2-trifluoromethyl-benzyl)-1H-indazol-5-ylmethylene]-2-(1,1-dioxidothiomorpholin-4-yl)-thiazol-4-one]	14 nM
O=C1N=C(N2CCC[C@H](C(=O)O)C2)S/C1=C\c1ccc2c(cnn2Cc2ccc(Cl)cc2C(F)(F)F)c1 [Example 48, 1-{5-[1-(4-Chloro-2-trifluoromethyl-benzyl)-1H-indazol-5-ylmethylene]-4-oxo-4,5-dihydro-thiazol-2-yl}piperidine-3-(S)-carboxylic acid]	14.3 nM
CNC1CCCCN(C2=NC(=O)/C(=C/c3ccc4c(cnn4Cc4ccc(Cl)cc4C(F)(F)F)c3)S2)C1 (stereo not shown) [Example 161, 5-[1-(4-Chloro-2-trifluoromethyl-benzyl)-1H-indazol-5-ylmethylene]-2-(3-methylamino-azepan-1-yl)-thiazol-4-one]	24.8 nM
COc1ccc(Cn2ncc3cc(/C=C4\SC(N5CCC[C@H](N)C5)=NC4=O)ccc32)c(C(F)(F)F)c1 [Example 51, 2-(3-(S)-Amino-piperidin-1-yl)-5-[1-(4-methoxy-2-trifluoromethyl-benzyl)-1H-indazol-5-ylmethylene]-thiazol-4-one]	9 nM
COc1ccc(Cn2ncc3cc(/C=C4\SC(N5CCN(C)CC5)=NC4=O)ccc32)c(C(F)(F)F)c1 [Compound 21, 5-[1-(4-Methoxy-2-trifluoromethyl-benzyl)-1H-indazol-5-ylmethylene]-2-(4-methyl-piperazin-1-yl)-thiazol-4-one]	3 nM
COc1ccc(Cn2ncc3cc(/C=C4\SC(N5CCC(C(=O)O)CC5)=NC4=O)ccc32)c(C(F)(F)F)c1 [Example 41, 1-{5-[1-(4-M ethoxy-2-trifluoromethyl-benzyl)-1H-indazol-5-ylmethylene]-4-oxo-4,5-dihydro-thiazol-2-yl}-piperidine-4-carboxylic acid]	15 nM
O=C1CN(C2=NC(=O)/C(=C/c3ccc4c(cnn4Cc4ccc(Cl)cc4C(F)(F)F)c3)S2)CCN1 [Compound 12, 4-{5-[1-(4-Chloro-2-trifluoromethyl-benzyl)-1H-indazol-5-ylmethylene]-4-oxo-4,5-dihydro-thiazol-2-yl}-piperazin-2-one]	4.6 nM
CN1CCN(C2=NC(=O)/C(=C/c3ccc4c(cnn4Cc4ccc(S(C)(=O)=O)cc4C(F)(F)F)c3)S2)CC1 [Compound 15, 5-[1-(4-Methanesulfonyl-2-trifluoromethyl-benzyl)-1H-indazol-5-ylmethylene]-2-(4-methyl-piperazin-1-yl)-thiazol-4-one]	530 nM
CN1CCN(C2=NC(=O)/C(=C/c3ccc4c(cnn4Cc4ccc(Cl)cc4I)c3)S2)CC1 [Example 96, 5-[1-(4-Chloro-2-iodo-benzyl)-1H-indazol-5-ylmethylene]-2-(4-methyl-piperazin-1-yl)-thiazol-4-one]	64 nM
